This is an account of results in the SangsterLogP compilation.

A short description of this data set: method code SF-GLC, from DOI: 10.1007/bf00316585, PMID: 6732504.

Regarding `N#CCCO`, the log partition coefficient (logP) is -0.94. Under `N#CCCCl` stands 0.18; under `C=CCC#N`, 0.4; under `CCCCCCCC#N`, 2.75. Under `N#CCCCCl` stands 0.56. As to `CCCCCCCCC#N`, the log partition coefficient (logP) was determined as 3.12.

`CCCC#N`: the lipophilicity (logP) is 0.53. With `CC(C)C#N`, the log partition coefficient (logP) was 0.46. The result for `CCCCCC#N` reads 1.66; that for `CC(C)CCC#N`, 1.54. Under `C=C(C)C#N` stands 0.68; under `N#CCCl`, 0.23.

A word on the logP: it is a log measure of how a compound divides between an organic and an aqueous phase.
